Results from patent US12357680B2, “Inhibition of histone methyl transferases to treat cancer” (Albert-Ludwigs-Universitat Freiburg, priority 2018, dated 2025).

Columns and labels:
NSD3 = NSD3 (Homo sapiens (Human), UniProt Q9BZ95); assay: Methyltransferase panel, 10-dose IC50 mode; type: biochemical; details: Substrate: Nucleosomes; 1 μM SAM; read-out: Control IC50*
Experimental: (§1) Compound 72b was further tested against a plurality of methyltransferases as described in the following. […] Reactions were carried out at 1 μM SAM. Curve fits were performed where the enzyme activities at the highest concentration of compounds were less than 65%. […] Compound 72b is referred to as KMI9542321 in the table below.

PRDM9 = PRDM9 (Homo sapiens (Human), UniProt Q9NQV7); assay: Methyltransferase panel, 10-dose IC50 mode; type: biochemical; details: Substrate: Histone H3; 1 μM SAM; read-out: Control IC50*
Experimental: as §1

ASH1L = ASH1L (Homo sapiens (Human), UniProt Q9NR48); assay: Methyltransferase panel, 10-dose IC50 mode; type: biochemical; details: Substrate: Nucleosomes; 1 μM SAM; read-out: Control IC50*
Experimental: as §1

[1] = test system: LNCaP prostate tumour cells; assay: Cell proliferation, xCelligence RTCA; type: cell-based, human
Experimental: (§2) Compound 75b was tested in a proliferation assay in cell culture as described in the following. Thus, compound 75b (alternatively referred to as “KMI95423411”) was added to a final concentration of 30 μM (in the controls, DMSO as added) to cells of the following cell lines: LNCaP, SW-480, A549, MDA-MB-468 and HepG2, and the cells were cultured in the presence of inhibitor or DMSO. At the time points indicated in FIG. 15, the cells were seeded in E-plates and the cell proliferation was determined using the xCelligence RTCA system (Roche) as described below.
(§3) Cell proliferation, migration and invastion were determined using the X-Celligence RTCA system (Roche). pLenti-LacZ, pLenti-KMT9α, pLenti-KMT9α(N122A), pLenti-KMT9α(Y125A) pLenti-ETF1, pLenti-shLaZ, and pLenti-shKMT9α constructs were used to produce recombinant lentiviruses to infect LNCaP and PC-3M cells as described in Metzger et al., 2005. For real-time recording of LNCaP, LNCaP-abl, LNCaP-abl EnzaR, and C4-2B cell proliferation, 20000 cells/well were seeded in 16 well E-plates (Roche). For PC-3M, 2500 cells/well were used. For DuCaP EnzaR, LAPC4 and LAPC4 EnzaR, 40000 cells/well were used. Cells were transfected with the indicated siRNAs in presence of Dharmafect 1 (LNCaP-abl, LAPC4, LAPC4 EnzaR; Dharmacon), Dharmafect 2 (LNCaP, PC-3M), or RNAiMAx (C4-2B, LNCaP-abl EnzaR, DuCaP EnzaR; Caco-2, HT-29, SK-N-SH, SW620, SW480, HT-29, HT-115, HCT116 p53+/+ and HCT p53−/−; Life Technologies) 24 h before seeding in E-plates. Cell indices were automatically recorded every 15 minutes. Relative velocities represent the change of the cell index over time. The sequences of the siRNAs (Stealth RNAi™ siRNAs; Life Technologies) used in the experiments are as following: siCtrl: […]

[2] = test system: SW-480 colorectal cancer cells; assay: Cell proliferation, xCelligence RTCA; type: cell-based, human; details: final concentration of 30 μM, vs DMSO
Experimental: as §2, §3

HepG2 cells = assay: Cell proliferation, xCelligence RTCA; type: cell-based; details: final concentration of 30 μM, vs DMSO; KMT9 non-responsive cells
Experimental: as §2, §3

[3] = test system: MDA-MB-468 breast cancer cells; assay: Cell proliferation, xCelligence RTCA; type: cell-based; details: final concentration of 30 μM, vs DMSO
Experimental: as §2, §3

A549 lung tumour cells = assay: Cell proliferation, xCelligence RTCA; type: cell-based; details: final concentration of 30 μM, vs DMSO
Experimental: as §2, §3

[4] = biological target: recombinant KMT9 (C21orf127/TRMT112) (Homo sapiens (Human), UniProt Q9Y5N5); assay: Histone H4 methylation assay with SAM[3H], autoradiography; type: biochemical; details: histone H4, SAM[3H]
Experimental: FIG. 1 C21orf127/TRMT112 methylates histone H4 at K12. (A to C) Methylation assays. (A) Histone H4, H3, H2A, H2B, and H1 were incubated with SAM[^3H] in the absence or presence of recombinant C21orf127/TRMT112. (B) Wild-type or mutant histone H4 were incubated with SAM[3H] in the presence of recombinant C21orf127/TRMT112. Proteins were stained by Ponceau red. […] (C) Histone H4 was incubated with C21orf127/TRMT112, SAM[^3H], and the SAM competitive inhibitor sinefungin as indicated. Proteins were stained by Ponceau red.
FIG. 9. […] Histone H4 (2 μg) was incubated with SAM[3H] in the presence of recombinant KMT9 (KMT9α and KMT90) and the three afore-mentioned inhibitors as indicated.
It was tested in this example whether the known DOT1L-inhibitors EPZ5676, SGC0946 and EPZ004777 (which are commercially available) are capable of inhibiting KMT9. To this aim, histone H4 was incubated with SAM[^3H] in the presence of recombinant KMT9 (provided in the form of the heterodimer of KMT9α and KMT90) and the three afore-mentioned inhibitors.
Four to eight μg of purified recombinant His-C21orf127, His-C21orf127/TRMT112, His-C21orf127(D103A)/TRMT112, His-C21orf127(N122A)/TRMT112, His-C21orf127(Y125A)/TRMT112, His-TRMT112, WBSCR22/TRMT112, His-TRMT11, His-TRMT12, His-KIAA1456, His-TRMT5, His-METTL27, His-METTL21A and His-METTL21B were incubated either with 4 μg core histones or 2 μg of histones H4, H3, H2A, H2B, H1 (BPS Bioscience), histone H4K12A, or His-ETF1 as indicated in methylation buffer (10 mM Tris-HCl pH 7.6, 50 mM KCl, 10 mM Mg(OAc)2, 1 mM DTT) supplemented as indicated with 1.5 μM SAM or 1.5 μl of radioactively labelled [^3H]SAM for 60 min (METTL21A: 300 minutes, METTL21B: 18 h) at 30° C. For mass spectrometry analysis, 2 μg of histone H4 were incubated overnight with 2 μg of His-C21orf127/TRMT112 in presence of SAM, heavy SAM, or SAM/heavy SAM mixture. The reaction mixture was analysed by autoradiography, Western blotting, or mass spectrometry.

SET8 = SET8 (Homo sapiens (Human), UniProt Q9NQR1); assay: Methyltransferase panel, 10-dose IC50 mode; type: biochemical; details: Substrate: Nucleosomes; 1 μM SAM; read-out: Control IC50*
Experimental: as §1

TRMT112 = TRMT112 (Homo sapiens (Human), UniProt Q9UI30); assay: Isothermal titration calorimetry (ITC) SAM binding; details: monomeric TRMT112
Experimental: (§4) ITC experiments were performed at 20° C. with a MicroCal VP-ITC microcalorimeter (Malvern). […] ITC data were analysed and fitted with one-site binding model by using Origin 7.0.

C21orf127 = C21orf127 (Homo sapiens (Human), UniProt Q9Y5N5); assay: Isothermal titration calorimetry (ITC) SAM binding; details: monomeric C21orf127
Experimental: as §4

C21orf127(D103)/TRMT112 = C21orf127(D103)/TRMT112 (Homo sapiens (Human), UniProt Q9Y5N5, D103A); assay: Isothermal titration calorimetry (ITC) SAM binding; details: mutant heterodimer
Experimental: as §4

C21orf127/TRMT112 = C21orf127/TRMT112 (Homo sapiens (Human), UniProt Q9Y5N5); assay: Isothermal titration calorimetry (ITC) SAM binding; details: 20° C.
Experimental: as §4

[5] = test system: LAPC4 EnzaR xenograft tumours; assay: Growth of xenograft tumours in NOD/SCID mice; type: in vivo; details: castrated mice, subcutaneous, vs miCtrl
Source text: (§5) It was investigated whether KMT9α loss might affect tumour growth in mice. Therefore, PC-3M and LNCaP cells were infected with lentivirus driving expression of either miRNA control (miRNA Ctrl) or miRNA against KMT9α (miRNA KMT9α) and implanted subcutaneously in the flank of immunocompromised mice. […] To investigate whether knockdown of KMT9α also blocks growth of enzalutamide-resistant tumours, LAPC4 EnzaR miCtrl and miKMT9α cells were implanted subcutaneously in the flank of immunocompromised, castrated mice.
(§6) pLenti6-miRNA Control and pLenti6-miRNA KMT9α constructs were used to produce recombinant lentiviruses to infect LNCaP, PC-3M and LAPC4 EnzaR cells as described^26. Five-week-old male severe combined immunodeficient mice were purchased from Charles River Laboratories. For tumour inoculation 5×10^6 LNCaP, 2×10^6 PC-3M, and 5×10^6 LAPC4 EnzaR cells infected with pLenti6-miRNA Control or pLenti6-miRNA KMT9α constructs were injected in NOD/SCID mice, respectively. Mice were castrated one week before injection of LAPC4 EnzaR. Cells were resuspended in 100 μl RPMI1640 mixed with 100 μl Matrigel (BD Biosciences) on ice and administered subcutaneously in the flank of each animal. The tumour size was determined by calliper measurements two times a week^24. Tumour volumes were calculated using the formula 4/3×π×r3. All experiments were performed according to the German Animal Protection Law with permission from the responsible local authorities.

LNCaP xenograft tumours = assay: Growth of xenograft tumours in NOD/SCID mice; type: in vivo; details: cells infected with lentivirus, subcutaneous, vs miRNA Ctrl
Source text: as §5, §6

PC-3M xenograft tumours = assay: Growth of xenograft tumours in NOD/SCID mice; type: in vivo; details: cells infected with lentivirus, subcutaneous, vs miRNA Ctrl
Source text: as §5, §6

Sequence of recombinant KMT9 (C21orf127/TRMT112) (Q9Y5N5 whole entry): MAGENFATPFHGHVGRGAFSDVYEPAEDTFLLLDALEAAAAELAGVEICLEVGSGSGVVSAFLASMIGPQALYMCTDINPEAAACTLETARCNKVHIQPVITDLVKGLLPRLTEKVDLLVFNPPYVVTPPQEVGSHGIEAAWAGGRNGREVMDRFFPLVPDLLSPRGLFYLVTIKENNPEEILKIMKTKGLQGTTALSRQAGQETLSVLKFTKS
Sequence of recombinant KMT9 (C21orf127/TRMT112) (Q9UI30 whole entry partner): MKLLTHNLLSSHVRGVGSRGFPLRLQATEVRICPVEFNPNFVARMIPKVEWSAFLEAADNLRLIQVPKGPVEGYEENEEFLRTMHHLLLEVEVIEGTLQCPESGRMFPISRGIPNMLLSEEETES
Sequence of C21orf127/TRMT112 (Q9Y5N5 whole entry): as the sequence (Q9Y5N5 whole entry) above
Sequence of C21orf127/TRMT112 (Q9UI30 whole entry partner): as the sequence (Q9UI30 whole entry partner) above
Sequence of C21orf127 (Q9Y5N5 whole entry): as the sequence (Q9Y5N5 whole entry) above
Sequence of C21orf127(D103)/TRMT112 (Q9Y5N5 whole entry D103A): as the sequence (Q9Y5N5 whole entry) above, with D103A counted along it
Sequence of C21orf127(D103)/TRMT112 (Q9UI30 whole entry partner): as the sequence (Q9UI30 whole entry partner) above
Sequence of TRMT112 (Q9UI30 whole entry): as the sequence (Q9UI30 whole entry partner) above
Sequence of SET8 (Q9NQR1 whole entry): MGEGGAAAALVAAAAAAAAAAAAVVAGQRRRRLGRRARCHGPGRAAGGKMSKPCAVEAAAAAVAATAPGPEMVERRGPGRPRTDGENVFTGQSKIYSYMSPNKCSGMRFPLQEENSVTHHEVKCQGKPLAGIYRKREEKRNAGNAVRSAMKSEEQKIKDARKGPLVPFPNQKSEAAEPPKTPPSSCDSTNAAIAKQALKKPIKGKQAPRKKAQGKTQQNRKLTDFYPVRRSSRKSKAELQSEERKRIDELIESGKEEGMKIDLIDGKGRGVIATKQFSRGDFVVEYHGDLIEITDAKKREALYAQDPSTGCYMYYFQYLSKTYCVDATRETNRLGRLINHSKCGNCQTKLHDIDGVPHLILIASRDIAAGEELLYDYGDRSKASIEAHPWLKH
Sequence of PRDM9 (Q9NQV7 whole entry): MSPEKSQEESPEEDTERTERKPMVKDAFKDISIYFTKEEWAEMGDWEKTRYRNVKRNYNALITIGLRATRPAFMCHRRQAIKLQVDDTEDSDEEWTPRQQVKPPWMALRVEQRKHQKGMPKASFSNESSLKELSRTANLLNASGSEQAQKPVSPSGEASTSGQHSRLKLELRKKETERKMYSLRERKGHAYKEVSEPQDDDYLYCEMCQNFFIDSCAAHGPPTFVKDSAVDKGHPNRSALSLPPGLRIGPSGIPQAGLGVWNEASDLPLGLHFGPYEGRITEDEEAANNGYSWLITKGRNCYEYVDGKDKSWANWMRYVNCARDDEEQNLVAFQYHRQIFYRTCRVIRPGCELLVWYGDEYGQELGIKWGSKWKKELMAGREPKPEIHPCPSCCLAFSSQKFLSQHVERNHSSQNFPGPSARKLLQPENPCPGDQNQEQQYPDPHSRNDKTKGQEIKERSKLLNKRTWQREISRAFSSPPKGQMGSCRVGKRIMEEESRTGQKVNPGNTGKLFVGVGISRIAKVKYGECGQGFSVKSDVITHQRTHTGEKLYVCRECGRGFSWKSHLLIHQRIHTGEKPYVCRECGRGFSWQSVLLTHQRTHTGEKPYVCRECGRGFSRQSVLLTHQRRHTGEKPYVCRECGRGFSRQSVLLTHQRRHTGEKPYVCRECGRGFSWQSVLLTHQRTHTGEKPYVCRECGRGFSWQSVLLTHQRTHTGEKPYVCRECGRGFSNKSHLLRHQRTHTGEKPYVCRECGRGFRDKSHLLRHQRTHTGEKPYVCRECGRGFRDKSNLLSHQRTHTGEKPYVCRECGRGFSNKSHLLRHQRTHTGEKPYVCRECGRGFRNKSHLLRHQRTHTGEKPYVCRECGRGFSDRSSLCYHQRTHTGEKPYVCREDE
Sequence of NSD3 (Q9BZ95 whole entry): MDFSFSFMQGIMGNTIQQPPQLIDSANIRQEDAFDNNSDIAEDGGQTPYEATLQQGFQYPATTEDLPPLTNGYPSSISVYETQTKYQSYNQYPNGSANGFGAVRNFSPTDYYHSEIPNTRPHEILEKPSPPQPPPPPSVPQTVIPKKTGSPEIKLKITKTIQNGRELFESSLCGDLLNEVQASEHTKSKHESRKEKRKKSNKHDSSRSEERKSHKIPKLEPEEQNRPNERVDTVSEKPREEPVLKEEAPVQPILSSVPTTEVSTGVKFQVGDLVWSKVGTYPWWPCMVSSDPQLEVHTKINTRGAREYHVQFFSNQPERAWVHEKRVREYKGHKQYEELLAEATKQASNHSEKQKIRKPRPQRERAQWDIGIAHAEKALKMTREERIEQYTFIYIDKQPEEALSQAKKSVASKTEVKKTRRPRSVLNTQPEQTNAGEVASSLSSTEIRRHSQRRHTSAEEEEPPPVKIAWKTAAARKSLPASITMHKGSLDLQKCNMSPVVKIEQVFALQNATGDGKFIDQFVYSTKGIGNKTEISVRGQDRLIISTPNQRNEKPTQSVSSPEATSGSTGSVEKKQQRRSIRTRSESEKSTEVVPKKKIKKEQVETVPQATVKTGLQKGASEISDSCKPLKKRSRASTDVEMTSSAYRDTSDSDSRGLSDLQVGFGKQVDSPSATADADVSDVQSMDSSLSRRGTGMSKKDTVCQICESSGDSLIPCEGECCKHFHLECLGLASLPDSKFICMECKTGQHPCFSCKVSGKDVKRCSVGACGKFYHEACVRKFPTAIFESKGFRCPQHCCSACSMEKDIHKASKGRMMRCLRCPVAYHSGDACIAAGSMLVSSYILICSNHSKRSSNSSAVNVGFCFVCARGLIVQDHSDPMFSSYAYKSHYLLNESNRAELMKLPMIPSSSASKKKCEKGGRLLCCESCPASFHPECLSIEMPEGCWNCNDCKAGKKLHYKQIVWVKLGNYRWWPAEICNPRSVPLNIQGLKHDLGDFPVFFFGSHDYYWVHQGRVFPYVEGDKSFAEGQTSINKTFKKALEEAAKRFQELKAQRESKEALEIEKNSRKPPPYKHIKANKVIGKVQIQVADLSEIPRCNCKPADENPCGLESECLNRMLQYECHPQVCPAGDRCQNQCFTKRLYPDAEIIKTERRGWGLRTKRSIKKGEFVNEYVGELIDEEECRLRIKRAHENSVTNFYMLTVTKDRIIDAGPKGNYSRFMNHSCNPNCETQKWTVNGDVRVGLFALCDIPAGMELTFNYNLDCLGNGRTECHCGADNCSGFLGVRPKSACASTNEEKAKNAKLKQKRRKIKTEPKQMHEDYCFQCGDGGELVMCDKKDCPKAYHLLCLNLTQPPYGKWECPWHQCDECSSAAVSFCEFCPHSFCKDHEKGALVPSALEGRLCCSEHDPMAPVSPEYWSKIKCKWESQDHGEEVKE

With CN1C(=O)[C@@]23C[C@]4([C@]56C[C@@]78SS[C@@](CO)(C(=O)N7[C@H]5Nc5ccccc56)N(C)C8=O)c5ccccc5N[C@@H]4N2C(=O)[C@]1(CO)SS3 [Chaetocin] as the molecule, how does the IC50 (NSD3) read?
Its IC50 is 58.8 nM.

What about the IC50 (PRDM9) of the same molecule?
Its IC50 is 354 nM.

And the IC50 (ASH1L)?
Its IC50 is 27.4 nM.

For CNc1ncnc2c1ccn2[C@@H]1C[C@H](CN(CCCNCCc2cccc(Oc3ccccc3)c2)CC[C@H](N)C(=O)OC)[C@@H](O)[C@H]1O [Compound 75b, methyl (S)-2-amino-4-((((1R,2R,3S,4R)-2,3-dihydroxy-4-(4-(methylamino)-7H-pyrrolo[2,3-d]pyrimidin-7-yl)cyclopentyl)methyl)(3-((3-phenoxyphenethyl)amino)propyl)amino)butanoate], which proliferation ([1]; final concentration of 30 μM, vs DMSO) is on record?
The proliferation was “blocks proliferation”.

And the proliferation [2]?
The proliferation was “blocks proliferation”.

What about the proliferation (HepG2 cells) of the same molecule?
Its proliferation is “does not affect proliferation”.

And the proliferation [3]?
Its proliferation is “blocks proliferation”.

And the proliferation (A549 lung tumour cells)?
The proliferation was “blocks proliferation”.

How did the “HMT activity of KMT9 (histone H4 methylation)” value (“HMT activity of KMT9” below) [4] turn out when CC(C)N(CCCNC(=O)Nc1ccc(C(C)(C)C)cc1)C[C@H]1O[C@@H](n2ccc3c(N)ncnc32)[C@H](O)[C@@H]1O [EPZ004777] was run?
Its value is “do not inhibit”.

How did the “HMT activity of KMT9” value [4] turn out when CC(C)N(C[C@H]1O[C@@H](n2cnc3c(N)ncnc32)[C@H](O)[C@@H]1O)[C@H]1C[C@@H](CCc2nc3cc(C(C)(C)C)ccc3[nH]2)C1 [EPZ5676] was run?
Its value is “do not inhibit”.

With Cc1ccc(NC2=CC(=O)c3sc(C)nc3C2=O)cc1 [Ryuvidine] as the molecule, how does the IC50 (SET8) read?
The IC50 was 775 nM.

C[S+](CC[C@H](N)C(=O)[O-])C[C@H]1O[C@@H](n2cnc3c(N)ncnc32)[C@H](O)[C@@H]1O (stereo partly drawn) [SAM, S-adenosyl-methionine] was tested. Which SAM binding (TRMT112) did it give?
The SAM binding was “no SAM binding”.

What about the SAM binding (C21orf127) of the same molecule?
The SAM binding was “no SAM binding”.

What about the SAM binding (C21orf127(D103)/TRMT112) of the same molecule?
The SAM binding was “no SAM binding”.

What about the Kd (C21orf127/TRMT112) of the same molecule?
The Kd was 2500 nM.

With CC(C)N(CCCNC(=O)Nc1ccc(C(C)(C)C)cc1)C[C@H]1O[C@@H](n2cc(Br)c3c(N)ncnc32)[C@H](O)[C@@H]1O [SGC0946] as the molecule, how does the “HMT activity of KMT9” value [4] read?
Its value is “do not inhibit”.

Which “HMT activity of KMT9” value [4] does the source give for Nc1ncnc2c1ncn2[C@@H]1O[C@H](C[C@@H](N)CC[C@H](N)C(=O)O)[C@@H](O)[C@H]1O [sinefungin] here?
Its value is “blocked”.

For “siKMT9α-3′UTR: siRNA that targets the three-prime untranslated region of the endogenously transcribed KMT9α mRNA (SEQ ID NO: 4) (GGAACUACAUUAGACUUAGUGGAAA; listed as RNA, chemistry not given here)”, which proliferation ([1]; LNCaP-LacZ control cells, vs siCtrl) is on record?
Its proliferation is “strongly impaired”.

B1: miRNA KMT9α: miRNA against KMT9α expressed from lentivirus pLenti6-miRNA KMT9α (SEQ ID NO: 1, 2) (nucleic acid)
chain 1: TGCTGATGTGAACTTTGTTACAGCGTGTTTTGGCCACTGACTGACACGCTGTAAAAGTTCACAT
chain 2: CCTGATGTGAACTTTTACAGCGTGTCAGTCAGTGGCCAAAACACGCTGTAACAAAGTTCACATC
Which “growth and final weight of xenografts” value [5] does the source give for B1 here?
The value was “strongly reduced”.

What about the “growth and final weight of xenografts” value (LNCaP xenograft tumours) of the same molecule?
Its value is “strongly reduced”.

And the “growth and final weight of xenografts” value (PC-3M xenograft tumours)?
Its value is “strongly reduced”.
